Measured values: patent US20180000085A1, “USE OF PICOLINAMIDE COMPOUNDS WITH FUNGICIDAL ACTIVITY” (DOW AGROSCIENCES LLC, priority 2014, published 2018)

Legend:
Puccinia triticina = assay: Wheat brown rust (PUCCRT) disease control on wheat seedlings; type: in vivo; parameters: key to PUCCRT 3DC, HV activity at 100 ppm (% control rating) / PUCCRT disease control, 3DC / PUCCRT 1DP disease control rating, HV activity / PUCCRT 3DC disease control rating, HV activity / PUCCRT 3DC, LV activity at 125.1 g/H (% Control rating) / PUCCRT 1DP, LV activity at 125.1 g/H (% Control rating) / PUCCRT 3DC disease control rating, LV activity at 125.1 g/H / PUCCRT 1DP disease control rating, LV activity at 125.1 g/H / PUCCRT 3DC disease control rating, HV activity at 100 ppm / PUCCRT 1DP disease control rating, HV activity at 100 ppm / HV activity at 100 ppm PUCCRT 3DC (disease control rating) / LV activity at 125.1 g/H PUCCRT 1DP (disease control rating) / LV activity at 125.1 g/H PUCCRT 3DC (disease control rating): A: > 80; B: ≤ 80; C: Not Tested; D: No Activity Observed in the Reported Assay; conditions: for PUCCRT 1DP disease control rating, HV activity / PUCCRT 3DC disease control rating, HV activity: HV application at 100 ppm
Zymoseptoria tritici = assay: Leaf blotch of wheat (SEPTTR) disease control on wheat seedlings; type: in vivo; parameters: key to SEPTTR 1DP, HV activity at 100 ppm (% control rating) / SEPTTR 3DC, HV activity at 100 ppm (% control rating) / SEPTTR disease control, 1DP / SEPTTR disease control, 3DC / SEPTTR 1DP disease control rating, HV activity / SEPTTR 3DC disease control rating, HV activity / SEPTTR 3DC, LV activity at 125.1 g/H (% Control rating) / SEPTTR 1DP, LV activity at 125.1 g/H (% Control rating) / SEPTTR 1DP disease control rating, LV activity at 125.1 g/H / SEPTTR 3DC disease control rating, LV activity at 125.1 g/H / SEPTTR 3DC disease control rating, HV activity at 100 ppm / SEPTTR 1DP disease control rating, HV activity at 100 ppm / HV activity at 100 ppm SEPTTR 3DC (disease control rating) / HV activity at 100 ppm SEPTTR 1DP (disease control rating) / LV activity at 125.1 g/H SEPTTR 1DP (disease control rating) / LV activity at 125.1 g/H SEPTTR 3DC (disease control rating): A: > 80; B: ≤ 80; C: Not Tested; D: No Activity Observed in the Reported Assay; conditions: for SEPTTR 1DP disease control rating, HV activity / SEPTTR 3DC disease control rating, HV activity: HV application at 100 ppm
[1] = HV activity at 100 ppm, 1 Day Protectant, wheat
[2] = HV activity at 100 ppm, 3 Day Curative, wheat
[3] = 1 Day Protectant, wheat brown rust
[4] = 3 Day Curative, wheat brown rust
[5] = high volume application, 100 ppm, 1DP
[6] = high volume application, 100 ppm, 3DC
[7] = 1 Day Protectant, wheat leaf blotch
[8] = 3 Day Curative, wheat leaf blotch
[9] = low volume application, 125.1 g/H, 1 Day Protectant
[10] = low volume application, 125.1 g/H, 3 Day Curative
[11] = low volume application, 125.1 g/H, 1 day protectant
[12] = low volume application, 125.1 g/H, 3 day curative

CC[C@H](Cc1ccccc1)[C@@H](OCC(C)C)[C@H](C)OC(=O)[C@H](C)NC(=O)c1nccc(OC)c1O [Cmpd 293, (S)-(2S,3R,4R)-4-benzyl-3-isobutoxyhexan-2-yl-2-(3-hydroxy-4-methoxypicolinamido)propanoate]
PUCCRT disease control, 1DP (Puccinia triticina; [1]): A (> 80)
PUCCRT disease control, 3DC (Puccinia triticina; [2]): B (≤ 80)
PUCCRT 1DP disease control rating, HV activity (Puccinia triticina; [3]): A (> 80)
PUCCRT 3DC disease control rating, HV activity (Puccinia triticina; [4]): B (≤ 80)
PUCCRT 1DP, HV activity at 100 ppm (% control rating) (Puccinia triticina; [5]): A (> 80)
PUCCRT 3DC, HV activity at 100 ppm (% control rating) (Puccinia triticina; [6]): B (≤ 80)
SEPTTR disease control, 1DP (Zymoseptoria tritici; [1]): A (> 80)
SEPTTR disease control, 3DC (Zymoseptoria tritici; [2]): B (≤ 80)
SEPTTR 1DP disease control rating, HV activity (Zymoseptoria tritici; [7]): A (> 80)
SEPTTR 3DC disease control rating, HV activity (Zymoseptoria tritici; [8]): B (≤ 80)
SEPTTR 1DP, HV activity at 100 ppm (% control rating) (Zymoseptoria tritici; [5]): A (> 80)
SEPTTR 3DC, HV activity at 100 ppm (% control rating) (Zymoseptoria tritici; [6]): B (≤ 80)

COc1ccnc(C(=O)N[C@@H](C)C(=O)O[C@@H](C)[C@@H](CC(C)C)OCC2CC2)c1OC(C)=O [Cmpd 1112]
LV activity at 125.1 g/H PUCCRT 1DP (disease control rating) (Puccinia triticina; low volume application, 125.1 g/H, 1 Day Protectant, wheat brown rust): B (≤ 80)
LV activity at 125.1 g/H PUCCRT 3DC (disease control rating) (Puccinia triticina; low volume application, 125.1 g/H, 3 Day Curative, wheat brown rust): A (> 80)
LV activity at 125.1 g/H SEPTTR 1DP (disease control rating) (Zymoseptoria tritici; low volume application, 125.1 g/H, 1 Day Protectant, wheat leaf blotch): D
LV activity at 125.1 g/H SEPTTR 3DC (disease control rating) (Zymoseptoria tritici; low volume application, 125.1 g/H, 3 Day Curative, wheat leaf blotch): D

COc1ccnc(C(=O)NC(C(=O)OC(C)C(Oc2ccc3ccccc3c2)C(C)C)C(C)C)c1O (centres unmarked) [Cmpd 401]
PUCCRT 1DP disease control rating, HV activity (Puccinia triticina; [3]): A (> 80)
PUCCRT 3DC disease control rating, HV activity (Puccinia triticina; [4]): B (≤ 80)
SEPTTR 1DP disease control rating, HV activity (Zymoseptoria tritici; [7]): B (≤ 80)
SEPTTR 3DC disease control rating, HV activity (Zymoseptoria tritici; [8]): B (≤ 80)

CCC(CC)[C@@H](Oc1cc(F)cc(Cl)c1)[C@H](C)OC(=O)[C@@H](NC(=O)c1nccc(OC)c1O)C(C)C [Cmpd 410]
PUCCRT 1DP disease control rating, HV activity (Puccinia triticina; [3]): A (> 80)
PUCCRT 3DC disease control rating, HV activity (Puccinia triticina; [4]): B (≤ 80)
SEPTTR 1DP disease control rating, HV activity (Zymoseptoria tritici; [7]): B (≤ 80)
SEPTTR 3DC disease control rating, HV activity (Zymoseptoria tritici; [8]): B (≤ 80)

CCCO[C@@H]([C@H](C)OC(=O)[C@H](C)NC(=O)c1nccc(OC)c1O)[C@H](CC)Oc1ccccc1 [Cmpd 326, (S)-(2S,3S,4S)-4-phenoxy-3-propoxyhexan-2-yl-2-(3-hydroxy-4-methoxypicolinamido)propanoate]
PUCCRT 1DP disease control rating, HV activity (Puccinia triticina; [3]): A (> 80)
PUCCRT 3DC disease control rating, HV activity (Puccinia triticina; [4]): A (> 80)
SEPTTR 1DP disease control rating, HV activity (Zymoseptoria tritici; [7]): D
SEPTTR 3DC disease control rating, HV activity (Zymoseptoria tritici; [8]): D

CCCOC[C@@H](Oc1ccccc1)[C@H](C)OC(=O)[C@H](CC)NC(=O)c1nccc(OC)c1OC(C)=O [Cmpd 484]
PUCCRT 1DP, LV activity at 125.1 g/H (% Control rating) (Puccinia triticina; [9]): B (≤ 80)
PUCCRT 3DC, LV activity at 125.1 g/H (% Control rating) (Puccinia triticina; [10]): A (> 80)
SEPTTR 1DP, LV activity at 125.1 g/H (% Control rating) (Zymoseptoria tritici; [9]): B (≤ 80)
SEPTTR 3DC, LV activity at 125.1 g/H (% Control rating) (Zymoseptoria tritici; [10]): D

COc1ccnc(C(=O)NC(C)C(=O)OC(C)COC(C)(C)C)c1OCOC(C)=O (centres unmarked) [Cmpd 535]
PUCCRT 1DP, LV activity at 125.1 g/H (% Control rating) (Puccinia triticina; [9]): D
PUCCRT 3DC, LV activity at 125.1 g/H (% Control rating) (Puccinia triticina; [10]): B (≤ 80)
SEPTTR 1DP, LV activity at 125.1 g/H (% Control rating) (Zymoseptoria tritici; [9]): D
SEPTTR 3DC, LV activity at 125.1 g/H (% Control rating) (Zymoseptoria tritici; [10]): B (≤ 80)

CC[C@H](C)[C@H](NC(=O)c1nccc(OC)c1OCOC(C)=O)C(=O)O[C@@H](C)[C@H](Oc1cc(F)ccc1F)C(C)C [Cmpd 619]
PUCCRT 1DP, LV activity at 125.1 g/H (% Control rating) (Puccinia triticina; [9]): A (> 80)
PUCCRT 3DC, LV activity at 125.1 g/H (% Control rating) (Puccinia triticina; [10]): A (> 80)
SEPTTR 1DP, LV activity at 125.1 g/H (% Control rating) (Zymoseptoria tritici; [9]): D
SEPTTR 3DC, LV activity at 125.1 g/H (% Control rating) (Zymoseptoria tritici; [10]): D

CCC(CC)[C@@H](Oc1cccc(-c2ccccc2)c1)[C@H](C)OC(=O)[C@@H](NC(=O)c1nccc(OC)c1OC(C)=O)C(C)C [Cmpd 664]
PUCCRT 1DP disease control rating, LV activity at 125.1 g/H (Puccinia triticina; [11]): A (> 80)
PUCCRT 3DC disease control rating, LV activity at 125.1 g/H (Puccinia triticina; [12]): D
SEPTTR 1DP disease control rating, LV activity at 125.1 g/H (Zymoseptoria tritici; [11]): D
SEPTTR 3DC disease control rating, LV activity at 125.1 g/H (Zymoseptoria tritici; [12]): D
